In US20090325952A1, “PYRAZOLO[3,4-B]PYRIDINE COMPOUNDS, AND THEIR USE AS PDE4 INHIBITORS” (Glaxo Group Limited, priority 2006, published 2009):
Counter-ions that a name gives are not always drawn.

Key:
[1] = Gravimetric vapour sorption / moisture uptake of solid forms; type: physicochemical
From the text: In addition, water is believed to be readily lost from the Form 2 hydrate (a) on heating to only slightly above room temperature and/or (b) on reduction in the relative humidity (R^H) (e.g. water appears to be lost from the Form 2 hydrate when the R^H is reduced to 0% R^H).

COPD patients [2] = settings: cited from earlier work
[3] = system: humans with histories of allergic rhinitis; settings: orally 500 ug once daily for 9 days, intranasal allergen provocation (pollen extracts); cited from earlier work
[4] = system: atopic dermatitis patients; settings: cited from earlier work
[5] = system: LPS-induced pulmonary neutrophilia in rats; assay: In Vivo Assay 1: LPS induced pulmonary neutrophilia in rats, intratracheal administration; design: species or system rat; settings: rats, i.t. dry powder blended in lactose; for arithmetic mean inhibition of LPS-induced pulmonary neutrophilia: about 2 hours prior to LPS
From the text: This assay is an animal model of acute inflammation in the lung—specifically neutrophilia induced by lipopolysaccharide (LPS)—and allows the study of putative inhibition of such neutrophilia (anti-inflammatory effect) by an intratracheally (i.t.) administered PDE4 inhibitor (“drug”). The PDE4 inhibitors are suitably in dry powder, aqueous solution or aqueous suspension form. I.t. administration is one model of inhaled administration, allowing topical delivery to the lung.
Animals: Male CD (Sprague Dawley Derived) rats supplied by Charles River, United Kingdom are housed in groups of 5 rats per cage, acclimatised after delivery for at least 7 days with bedding/nesting material regularly changed, fed on SDS diet R1 pelleted food given ad lib, and supplied with daily-changed pasteurised animal grade drinking water.
Device for dry powder administration: For these studies, a Penn Century DP-4 dry powder intratracheal (i.t.) delivery device (insufflator) is used for administration of a dry powder blend of vehicle (inhalation grade lactose) and the PDE4 inhibitor compound or salt of the invention (“drug”). Each device is numbered and the sample loading chamber is unscrewed from the main device and weighed. The i.t. delivery needle is also weighed. The drug+lactose blend or inhalation grade lactose (vehicle control) is then added to the sample chamber and this is then re-weighed. The sample chamber is fitted back on to the main device to prevent any drug being lost. This procedure is repeated for all of the Penn century devices to be used in the study (one separate device for each animal). After dosing to the animals, the sample chambers and needles are re-weighed in order to determine the amount of sample that was expelled from the device.
Device for aqueous solution administration: A blunt dosing needle, whose forward end is slightly angled to the needle axis, is used, with a flexible plastic portex canula inserted into the needle. The portex cannula is inserted into the lumen of the blunt stainless steel dosing needle and this is carefully inserted into the back of the animal's throat and into the trachea via the larynx. A known volume (200 microlitres) of the vehicle (0.2% Tween 80™ in saline) or of the solution (or suspension) drug composition is administered into the trachea using a plastic syringe that is attached to the portex cannula and dosing needle. A new internal cannula is used for each different drug group. After dosing, the needle is removed from the trachea and the animals are removed from the table and continually observed until they recover from the effects of anaesthesia. The animals are then returned to the holding cages and given free access to food and water, and are observed and any unusual behavioural changes noted. (Aqueous suspensions can be handled generally similarly.)
Drugs and Materials: Lipopolysaccharide (LPS) (Serotype:0127:B8, e.g. from Sigma, UK; e.g. L3129 prepared by phenol extraction) is dissolved in phosphate-buffered saline (PBS).
For dry powder, aqueous solution or aqueous suspension administration, PDE4 inhibitors are preferably used in size-reduced (e.g. micronised) form, for example according to the Micronisation Example(s) disclosed herein.
For dry powder administration of the drug, the PDE4 inhibitor compound or salt of the invention (drug) is administered as a dry powder blended with inhalation-grade (respiratory-grade) lactose, i.e. as a dry powder composition. The target quantity of dry powder composition administered i.t. to each animal is 2 mg. This remains constant throughout the studies. To achieve different doses, blends of the drug dry powder and lactose, containing different concentrations of the PDE4 inhibitor compound or salt of the invention (drug), are prepared. […]

[6] = system: LPS-induced nasal neutrophilia in rats; assay: In Vivo Assay 2: LPS induced nasal neutrophilia in rats, intranasal administration; design: species or system rat; settings: for inhibition (arithmetic mean) of LPS-induced nasal neutrophilia: rats, i.n. aqueous solution, about 30 minutes prior to LPS
From the text: This assay is an animal model of acute inflammation in the nose—specifically neutrophilia induced by lipopolysaccharide (LPS)— and allows the study of putative inhibition of such neutrophilia (anti-inflammatory effect) by an intranasally (i.n.) administered PDE4 inhibitor (“drug”). The PDE4 inhibitor is preferably in the form of an aqueous suspension or aqueous solution. Bolus, i.n. administration allows topical delivery to the nose.
Animals: Male CD rats (Sprague Dawley derived), weighing between 300-350 g are supplied by Charles River, UK and transported to the test site. On arrival at the test site, the animals are housed in groups of 4 or 5 per cage and complete a minimum acclimatisation period of 7 days. The animals are housed in solid bottomed cages using grade 8 sawdust. The bedding and nesting materials are changed 3 times per week. Diet comprises SDS diet R1 pelleted food given ad lib. Pasteurised animal grade drinking water is supplied and changed daily.
Lipopolysaccharide (Serotype: 0127:B8, e.g. available from Sigma, UK; e.g. L3129 prepared by phenol extraction) is used for all studies and is dissolved in phosphate-buffered saline (PBS).
Tween 80™ (e.g. available from Sigma e.g. 023K 01575). A mixture of 0.2% Tween 80™ in phosphate buffered saline (PBS) is prepared as vehicle for solution compositions. The Sigma catalogue 2004-2005 and The Handbook of Pharmaceutical Excipients (HPE) 4th edition 2003 pp. 479-483 define Tween 80™ as a brand of polysorbate 80 (according to HPE, polysorbate 80 is also named polyoxyethylene 20 sorbitan monooleate, i.e. having been copolymerised with about 20 moles of ethylene oxide for each mole of sorbitol and/or sorbitol anhydrides used).
The PDE4 inhibitor compound or salt of the invention (“drug”) is preferably used in size-reduced (e.g. micronised) form, for example according to the Micronisation Example(s) disclosed herein.
A solution of compound (0.7 mg/ml) is generally prepared by adding 0.2% Tween 80™ in phosphate buffered saline (PBS) to a pre-weighed micronised sample of the drug. The solution composition is sonicated, e.g. for approximately 2 min, and is observed to be a solution (if it is a solution) by visual assessment. A fixed volume of 50 microlitres (25 microlitres into each nostril) of either the drug-containing solution composition or a saline/Tween 80™ vehicle is administered to all animals. Each animal weighs, on average, 350 g. To achieve a dose of 100 μg/kg (100 ug/kg), each animal receives a total of 35 μg (35 ug) of the drug. The dose volume is 50 microlitres (25 microlitres to each nostril), and therefore a concentration of 35 μg (ug) per 50 microlitres (0.7 mg/ml) is prepared. To achieve lower dose concentrations, serial dilutions are prepared in saline/Tween 80™
Intranasal dosing with the PDE4 inhibitor (drug): Rats are anaesthetised by placing the animals in a sealed Perspex chamber and exposing them to a gaseous mixture of isofluorane (5%), nitrous oxide (2 L/min) and oxygen (1 L/min). Once anaesthetised, the animals are i.n. dosed with vehicle or PDE4 inhibitor aqueous compositions using a 10-100-microlitre-range Gilson pipette and plastic disposable tip. A volume of 25 microlitres is administered into each nostril by carefully inserting the pipette tip into the nostril and dispensing the required volume. When the dosing procedure is completed, the animal is returned to the cage and observed at regular intervals until it had recovered from the effects of the anaesthetic. […]

COPD patients [7] = settings: cited from earlier work; remark: listed apart in the source

## CCc1nc2c(cnn2CC)c(NC2CCOCC2)c1CNC(=O)c1ccc(NC(=O)CCCCCCCN(C)CCO)cc1 [N-{[1,6-diethyl-4-(tetrahydro-2H-pyran-4-ylamino)-1H-pyrazolo[3,4-b]pyridin-5-yl]methyl}-4-({8-[(2-hydroxyethyl)(methyl)amino]octanoyl}amino)benzamide monohydrochloride]
[1]; compared with Form 1 anhydrate
  propensity to take up water as relative humidity increases: greater propensity to take up water than the crystalline monohydrochloride Form 1 anhydrate

## CCc1nc2c(cnn2CC)c(NC2CCOCC2)c1CNC(=O)c1ccc(NC(=O)CCCCCCCN(C)CCO)cc1 [N-{[1,6-Diethyl-4-(tetrahydro-2H-pyran-4-ylamino)-1H-pyrazolo[3,4-b]pyridin-5-yl]methyl}-4-({8-[(2-hydroxyethyl)(methyl)amino]octanoyl}amino)benzamide monohydrochloride]
[1]; 25° C., RH increased from 30% to 75%
  moisture uptake, % weight gain: about 0.5%

## O=C(Nc1c(Cl)cncc1Cl)c1ccc(OC(F)F)c(OCC2CC2)c1 [roflumilast]
COPD patients [2]
  FEV1: small improvements
[3]
  rhinal airflow during the treatment period (compared to placebo): effective in improving rhinal airflow

## Nc1nc2c([nH]1)c(=O)n(CC1CC1)c(=O)n2CC1CC1 [cipamfylline]
[4]; 0.15% cream, versus vehicle and hydrocortisone 17-butyrate (0.1%) cream
  efficacy in the treatment of atopic dermatitis patients: significantly more effective than vehicle, but significantly less effective than hydrocortisone 17-butyrate (0.1%) cream

## CCc1nc2c(cnn2CC)c(NC2CCOCC2)c1CNC(=O)c1ccc(NC(=O)CCCCCCCN(C)CCO)cc1 [Example 1A2, N-{[1,6-diethyl-4-(tetrahydro-2H-pyran-4-ylamino)-1H-pyrazolo[3,4-b]pyridin-5-yl]methyl}-4-({8-[(2-hydroxyethyl)(methyl)amino]octanoyl}amino)benzamide monohydrochloride]
[5]; about 10 micrograms/kg
  arithmetic mean inhibition of LPS-induced pulmonary neutrophilia: about 29%
[5]; about 30 micrograms/kg
  arithmetic mean inhibition of LPS-induced pulmonary neutrophilia: about 44%
[5]; about 100 micrograms/kg
  arithmetic mean inhibition of LPS-induced pulmonary neutrophilia: about 39%
[5]; about 100 micrograms/kg, about 4 hours prior to LPS
  inhibition of LPS-induced pulmonary neutrophilia: about 60%
[5]; about 300 micrograms/kg
  arithmetic mean inhibition of LPS-induced pulmonary neutrophilia: about 55%
[6]; rat, i.n., micronised, aqueous solution in 0.2% Tween 80 in PBS, about 30 minutes prior to LPS challenge
  estimated ED50 for inhibition of LPS-induced nasal neutrophilia: approximately 4.6 micrograms/kg body weight
[6]; about 1 micrograms/kg
  inhibition (arithmetic mean) of LPS-induced nasal neutrophilia: essentially no inhibition
[6]; about 3 micrograms/kg
  inhibition (arithmetic mean) of LPS-induced nasal neutrophilia: small and non-statistically-significant inhibition
[6]; about 10 micrograms/kg
  inhibition (arithmetic mean) of LPS-induced nasal neutrophilia: about 62%
[6]; about 100 micrograms/kg
  inhibition (arithmetic mean) of LPS-induced nasal neutrophilia: about 79%

## COc1ccc([C@]2(C#N)CC[C@@H](C(=O)O)CC2)cc1OC1CCCC1 [cilomilast]
COPD patients [2]; 15 mg orally twice daily
  forced expiratory volume in 1 s (FEV1): appears to improve
COPD patients [7]
  antiinflammatory effects: appears to have antiinflammatory effects

## COc1ccc(C2CNC(=O)NC2)cc1O[C@H]1C[C@@H]2CC[C@H]1C2 [CP80,633]
[4]; atopic dermatitis patients, 0.5% ointment, twice daily topical application
  inflammatory parameters: reductions of inflammatory parameters
